ChEMBL document CHEMBL5055649, “Synthesis and biological evaluation of 3,5-substituted pyrazoles as possible antibacterial agents” (Bioorg Med Chem, 2021)
Converted amounts (≈) assume the structure as drawn. The source made the active and inactive calls. The rule behind the calls is not given here.

Assays:
[1] = test system: Escherichia coli; assay: Antibacterial activity against Escherichia coli MG1655 assessed as bacterial growth inhibition measured after 20 hrs by CLSI protocol based broth microdilution method; format: functional
[2] = test system: Staphylococcus aureus; assay: Antibacterial activity against Staphylococcus aureus ATCC 25923 assessed as bacterial growth inhibition measured after 20 hrs by CLSI protocol based broth microdilution method; format: functional
[3] = test system: Bacillus subtilis; assay: Antibacterial activity against Bacillus subtilis 168 assessed as diameter of zone of inhibition by agar plate diffusion method; format: functional
[4] = test system: Escherichia coli; assay: Antibacterial activity against Escherichia coli assessed as zone of inhibition by plate agar diffusion method; format: functional
[5] = test system: Bacillus subtilis; assay: Bacteriostatic activity against Bacillus subtilis 168 assessed as reduction in bacterial growth measured after 20 hrs by CLSI protocol based broth microdilution method; format: functional, organism-based
[6] = test system: Staphylococcus aureus; assay: Bacteriostatic activity against Staphylococcus aureus ATCC 25923 assessed as reduction in bacterial growth measured after 20 hrs by CLSI protocol based broth microdilution method; format: functional, organism-based
[7] = test system: 3T3-L1; assay: Cytotoxicity against mouse 3T3-L1 cells assessed as reduction in cell viability at 50 ug/ml measured after 24 to 72 hrs y MTT assay; format: cell-based; conditions: time 24-72 hrs, dose 50 µg/ml
[8] = test system: Bacillus subtilis; assay: Induction of morphological changes in Bacillus subtilis 168 assessed as immediate cell lysis at >8 ug/ml incubated for 120 mins by phase-contrast microscopic analysis; format: functional, organism-based; conditions: dose > 8.0 µg/ml
[9] = test system: Bacillus subtilis; assay: Induction of morphological changes in Bacillus subtilis 168 assessed as cell lysis at 2.5 to 3.5 times MIC incubated for 1 hr by phase-contrast microscopic analysis; format: functional, organism-based
[10] = test system: Bacillus subtilis; assay: Induction of morphological changes in Bacillus subtilis 168 assessed as cell lysis at 2.5 to 3.5 times MIC incubated for 2 hrs by phase-contrast microscopic analysis; format: functional, organism-based
[11] = test system: Bacillus subtilis; assay: Induction of morphological changes Bacillus subtilis 168 assessed as morphological changes by measuring cell lysis with cell debris and ghost cells at 3 times MIC incubated for 3 hr by phase-contrast microscopic analysis; format: functional, organism-based
[12] = test system: Bacillus subtilis; assay: Induction of morphological changes in Bacillus subtilis 168 assessed as bulbous distortion at 2.5 to 2.75 times MIC incubated for 3 hr by phase-contrast microscopic analysis; format: functional, organism-based
[13] = test system: Bacillus subtilis; assay: Antibacterial activity against Bacillus subtilis 168 assessed as bacterial growth inhibition measured after 20 hrs by CLSI protocol based broth microdilution method; format: functional
[14] = Cytotoxicity against mouse 3T3-L1 cells assessed as cell viability at 25 ug/ml measured up to 72 hrs y MTT assay relative to control; format: cell-based; conditions: at 25 µg/mL, read-out: Activity

| SMILES | MIC95 [1] | MIC95 [2] | further results |
| --- | --- | --- | --- |
| COc1ccc(-c2cc(-c3ccc(-c4ccc(C(C)(C)C)cc4)cc3)n[nH]2)cc1 | > 128 mg/L | > 128 mg/L |  |
| Clc1ccc(-c2ccc(-c3cc(-c4ccc(OCc5ccccc5)cc4)[nH]n3)cc2)cc1 | > 128 mg/L | > 128 mg/L |  |
| COc1ccc(OC)c(-c2cc(-c3ccc(-c4ccccc4)cc3)n[nH]2)c1 | > 128 mg/L | > 128 mg/L |  |
| COc1ccc(-c2cc(-c3ccc(-c4ccccc4)cc3)n[nH]2)cc1OC | > 128 mg/L | > 128 mg/L | diameter of the inhibition zone (DIZ) [3]: 13 mm; diameter of the inhibition zone (DIZ) [4]: 20 mm |
| COc1ccc(OC)c(-c2cc(-c3ccc(-c4ccc(C(C)(C)C)cc4)cc3)n[nH]2)c1 | > 128 mg/L | > 128 mg/L |  |
| COc1cc(-c2cc(-c3ccc(-c4ccccc4)cc3)n[nH]2)ccc1O | > 128 mg/L | 8 mg/L (≈ 23.4 µM) | Activity [5]: Active; Activity [6]: Active; Activity [7]: Non-Toxic; Activity [8]: inactive; Activity [9]: Active; Activity [10]: Active; Activity [11]: Active; Activity [12]: Active; MIC [13]: 8 mg/L (≈ 23.4 µM) |
| COc1ccc(-c2cc(-c3ccc(-c4ccc(Cl)cc4)cc3)n[nH]2)cc1 | > 128 mg/L | > 128 mg/L |  |
| Oc1cccc(-c2cc(-c3ccc(-c4ccccc4)cc3)n[nH]2)c1 | > 128 mg/L | > 128 mg/L |  |
| COc1ccc(-c2cc(-c3ccc(-c4ccc(C(C)(C)C)cc4)cc3)n[nH]2)cc1OC | > 128 mg/L | > 128 mg/L |  |
| COc1cc(-c2cc(-c3ccc(-c4ccc(Cl)cc4)cc3)n[nH]2)ccc1OCc1ccccc1 | > 128 mg/L | > 128 mg/L |  |
| CC(C)(C)c1ccc(-c2ccc(-c3cc(-c4ccc(OCc5ccccc5)cc4)[nH]n3)cc2)cc1 | > 128 mg/L | > 128 mg/L |  |
| COc1ccc(OC)c(-c2cc(-c3ccc(-c4ccc(Cl)cc4)cc3)n[nH]2)c1 | > 128 mg/L | > 128 mg/L |  |
| COc1cc(-c2cc(-c3ccc(C(C)(C)C)cc3)n[nH]2)ccc1O | > 128 mg/L | 32 mg/L (≈ 99.3 µM) | Activity [5]: Active; Activity [6]: Active; viability at 72 h, 25 ug/ml [14]: 85%; MIC [13]: 16 mg/L (≈ 49.6 µM) |
| COc1ccc(-c2cc(-c3ccc(-c4ccc(Cl)cc4)cc3)n[nH]2)c(OC)c1 | > 128 mg/L | > 128 mg/L |  |
| COc1ccc(-c2cc(-c3ccc(-c4ccc(Cl)cc4)cc3)n[nH]2)cc1OC | > 128 mg/L | > 128 mg/L |  |
| COc1ccc(-c2cc(-c3ccc(-c4ccccc4)cc3)n[nH]2)cc1 | > 128 mg/L | > 128 mg/L |  |
| Clc1ccc(-c2ccc(-c3cc(-c4cccc(OCc5ccccc5)c4)[nH]n3)cc2)cc1 | > 128 mg/L | > 128 mg/L |  |
